Results from ChEMBL document CHEMBL5512696, “Discovery of a Novel ASM Direct Inhibitor with a 1,5-Diphenyl-pyrazole Scaffold and Its Antidepressant Mechanism of Action” (J Med Chem, 2024).
Active and inactive are the calls of the source. The calls are words filed in the database; no cut-off is given here.

How the values were obtained:
[1] = Neurotoxicity against human SH-SY5Y cells assessed as reduction in cell viability at 5 to 20 uM by CCK-8 assay; assay type: toxicity, cell-based; conditions: dose 5-20 µM
[2] = Neurotoxicity against human SH-SY5Y cells assessed as reduction in cell viability at 100 uM by CCK-8 assay; assay type: toxicity, cell-based
[3] = Neurotoxicity against human SH-SY5Y cells assessed as cell survival rate at 5 to 20 uM by CCK-8 assay relative to control; assay type: toxicity, cell-based; conditions: dose 5-20 µM, read-out: Survival
[4] = tested on: SH-SY5Y; assay: Neuroprotective activity against corticosterone induced human SH-SY5Y cells assessed as protection against corticosterone induced cell damage measured after 24 hrs by CCK-8 assay; assay type: functional, cell-based; conditions: dose 5-20 µM
[5] = Metabolic stability in human liver microsomes assessed as half life at 1 uM incubated for 60 mins by LC-MS/MS analysis; assay type: ADME, Microsome
[6] = Metabolic stability in human liver microsomes assessed as intrinsic clearance at 1 uM incubated for 60 mins by LC-MS/MS analysis; assay type: ADME, Microsome; conditions: read-out: CLH
[7] = Half life in male ICR mouse at 1 mg/kg, iv measured upto 480 mins by LC-MS/MS analysis; assay type: ADME, organism-based; conditions: in vivo, 8 h
[8] = Tmax in male ICR mouse at 1 mg/kg, iv measured upto 480 mins by LC-MS/MS analysis; assay type: ADME, organism-based; conditions: in vivo
[9] = Cmax in male ICR mouse at 1 mg/kg, iv measured upto 480 mins by LC-MS/MS analysis; assay type: ADME, organism-based; conditions: in vivo
[10] = AUC (0 to t) in male ICR mouse at 1 mg/kg, iv measured upto 480 mins by LC-MS/MS analysis; assay type: ADME, organism-based; conditions: in vivo
[11] = AUC (0 to infinity) in male ICR mouse at 1 mg/kg, iv measured upto 480 mins by LC-MS/MS analysis; assay type: ADME, organism-based; conditions: in vivo, 8 h
[12] = Observed MRT (0 to infinity) in male ICR mouse at 1 mg/kg, iv measured upto 480 mins by LC-MS/MS analysis; assay type: ADME, organism-based; conditions: in vivo
[13] = Observed apparent volume of distribution in male ICR mouse at 1 mg/kg, iv measured upto 480 mins by LC-MS/MS analysis; assay type: ADME, organism-based; conditions: in vivo, 8 h
[14] = Observed clearance in male ICR mouse at 1 mg/kg, iv measured upto 480 mins by LC-MS/MS analysis; assay type: ADME, organism-based; conditions: in vivo, 8 h
[15] = Bioavailability in male ICR mouse at 1 mg/kg, iv measured upto 480 mins by LC-MS/MS analysis; assay type: ADME, organism-based; conditions: in vivo
[16] = AUC (0 to infinity) in male ICR mouse at 10 mg/kg, ip measured upto 480 mins by LC-MS/MS analysis; assay type: ADME, organism-based; conditions: in vivo
[17] = AUC (0 to t) in male ICR mouse at 10 mg/kg, ip measured upto 480 mins by LC-MS/MS analysis; assay type: ADME, organism-based; conditions: in vivo
[18] = Cmax in male ICR mouse at 10 mg/kg, ip measured upto 480 mins by LC-MS/MS analysis; assay type: ADME, organism-based; conditions: in vivo
[19] = Half life in male ICR mouse at 10 mg/kg, ip measured upto 480 mins by LC-MS/MS analysis; assay type: ADME, organism-based; conditions: in vivo
[20] = Observed MRT (0 to infinity) in male ICR mouse at 10 mg/kg, ip measured upto 480 mins by LC-MS/MS analysis; assay type: ADME, organism-based; conditions: in vivo
[21] = Drug concentration in male ICR mouse plasma at 1 mg/kg, iv measured after 30 mins by LC-MS/MS analysis; assay type: ADME, organism-based
[22] = Drug concentration in male ICR mouse plasma at 1 mg/kg, iv measured after 60 mins by LC-MS/MS analysis; assay type: ADME, organism-based
[23] = Drug concentration in male ICR mouse brain at 1 mg/kg, iv measured after 30 mins by LC-MS/MS analysis; assay type: ADME, organism-based; conditions: read-out: Ct
[24] = Drug concentration in male ICR mouse brain at 1 mg/kg, iv measured after 60 mins by LC-MS/MS analysis; assay type: ADME, organism-based; conditions: read-out: Ct
[25] = Ratio of drug concentration in male ICR mouse brain to plasma at 1 mg/kg, iv measured after 30 mins by LC-MS/MS analysis; assay type: ADME, organism-based; conditions: read-out: BPR
[26] = Ratio of drug concentration in male ICR mouse brain to plasma at 1 mg/kg, iv measured after 60 mins by LC-MS/MS analysis; assay type: ADME, organism-based; conditions: read-out: BPR
[27] = tested on: Mus musculus; assay: Improvement in depression-like behavior in ICR mouse model of chronic unpredictable mild stress assessed as reduction in immobility time at 6 to 24 mg/kg, ip administered once a day for 10 days post 8 week of chronic unpredictable mild stress by tail suspension test; assay type: functional, organism-based; conditions: dose 6-24 mg/kg, time 10.0 day
[28] = tested on: Mus musculus; assay: Improvement in depression-like behavior in ICR mouse model of chronic unpredictable mild stress assessed as reduction in immobility time at 6 to 24 mg/kg, ip administered once a day for 10 days post 8 week of chronic unpredictable mild stress by forced swim test; assay type: functional, organism-based; conditions: dose 6-24 mg/kg, time 10.0 day
[29] = tested on: Mus musculus; assay: Improvement in depression-like behavior in ip dosed ICR mouse model of chronic unpredictable mild stress assessed as improvement in sugar consumption administered once a day for 10 days post 8 week of chronic unpredictable mild stress by sugar preference test; assay type: functional, organism-based; conditions: dose 6-24 mg/kg, time 10.0 day
[30] = tested on: Mus musculus; assay: Improvement in depression-like behavior in ICR mouse model of chronic unpredictable mild stress assessed as increase in total distance traveled in center at 6 to 24 mg/kg, ip administered once a day for 10 days post 8 week of chronic unpredictable mild stress by open field test; assay type: functional, organism-based; conditions: dose 6-24 mg/kg, time 10.0 day
[31] = tested on: Mus musculus; assay: (§1) Antidepressant activity in ICR mouse model of chronic unpredictable mild stress assessed as downregulation of neuronal apoptosis by measuring improvement in Bcl-2/Bax ratio in hippocampus at 6 to 24 mg/kg, ip administered once a day for 1 week post 8 week of chronic unpredictable mild stress and measured after 1 week by Western blot analysis; assay type: functional, organism-based; conditions: dose 6-24 mg/kg, time 2.0 weeks
[32] = tested on: Mus musculus; assay: (§2) Antidepressant activity in ip dosed ICR mouse model of chronic unpredictable mild stress assessed as downregulation of neuronal apoptosis by measuring reduction in caspase-3 protein level in hippocampus administered once a day for 1 week post 8 week of chronic unpredictable mild stress and measured after 1 week by Western blot analysis; assay type: functional, organism-based; conditions: dose 6-24 mg/kg, time 2.0 weeks
[33] = tested on: Mus musculus; assay: as §2, with “caspase-9” for “caspase-3”; assay type: functional, organism-based; conditions: dose 6-24 mg/kg, time 2.0 weeks
[34] = tested on: Mus musculus; assay: as §1, with “increase” for “improvement”, “BDNF protein level” for “Bcl-2/Bax ratio”; assay type: functional, organism-based; conditions: dose 6-24 mg/kg, time 2.0 weeks
[35] = tested on: Mus musculus; assay: (§3) Antidepressant activity in ICR mouse model of chronic unpredictable mild stress assessed as reduction in ceramide level in cerebral cortex at 6 to 12 mg/kg, ip administered once a day for 1 week post 8 week of chronic unpredictable mild stress and measured after 1 week by ELISA; assay type: functional, organism-based; conditions: dose 6-12 mg/kg, time 2.0 weeks
[36] = tested on: Mus musculus; assay: Antidepressant activity in ICR mouse model of chronic unpredictable mild stress assessed as reduction in ceramide level in hippocampus at 6 to 12 mg/kg, ip administered once a day for 1 week post 8 week of chronic unpredictable mild stress and measured after 1 week by ELISA; assay type: functional, organism-based; conditions: dose 6-12 mg/kg, time 2.0 weeks
[37] = tested on: Mus musculus; assay: (§4) Antidepressant activity in ip dosed ICR mouse model of chronic unpredictable mild stress assessed as reduction in sphingosine-1-phosphate level in cerebral cortex administered once a day for 1 week post 8 week of chronic unpredictable mild stress and measured after 1 week by ELISA; assay type: functional, organism-based; conditions: dose 6-12 mg/kg, time 2.0 weeks
[38] = tested on: Mus musculus; assay: Antidepressant activity in ip dosed ICR mouse model of chronic unpredictable mild stress assessed as reduction in sphingosine-1-phosphate level in hippocampus administered once a day for 1 week post 8 week of chronic unpredictable mild stress and measured after 1 week by ELISA; assay type: functional, organism-based; conditions: dose 6-12 mg/kg, time 2.0 weeks
[39] = tested on: Mus musculus; assay: Antidepressant activity in ICR mouse model of chronic unpredictable mild stress assessed as reduction in sphingomyelin level in cerebral cortex at 6 to 12 mg/kg, ip administered once a day for 1 week post 8 week of chronic unpredictable mild stress and measured after 1 week by ELISA; assay type: functional, organism-based; conditions: dose 6-12 mg/kg, time 2.0 weeks
[40] = tested on: Mus musculus; assay: Antidepressant activity in ICR mouse model of chronic unpredictable mild stress assessed as reduction in sphingomyelin level in hippocampus at 6 to 12 mg/kg, ip administered once a day for 1 week post 8 week of chronic unpredictable mild stress and measured after 1 week by ELISA; assay type: functional, organism-based; conditions: dose 6-12 mg/kg, time 2.0 weeks
[41] = tested on: Mus musculus; assay: Antidepressant activity in ICR mouse model of chronic unpredictable mild stress assessed as reduction in sphingomyelin level in hippocampus at 12 mg/kg, ip administered once a day for 1 week post 8 week of chronic unpredictable mild stress and measured after 1 week by ELISA; assay type: functional, organism-based; conditions: time 2.0 weeks
[42] = tested on: Mus musculus; assay: as §3, with “oxidative stress by measuring reduction in MDA” for “ceramide”; assay type: functional, organism-based; conditions: dose 6-12 mg/kg, time 2.0 weeks
[43] = tested on: Mus musculus; assay: as §4, with “oxidative stress by measuring increase in SOD” for “sphingosine-1-phosphate”; assay type: functional, organism-based; conditions: dose 6-12 mg/kg, time 2.0 weeks
[44] = tested on: Mus musculus; assay: as §4, with “oxidative stress by measuring increase in GSH” for “sphingosine-1-phosphate”; assay type: functional, organism-based; conditions: dose 6-12 mg/kg, time 2.0 weeks
[45] = tested on: Mus musculus; assay: Antineuroinflammatory activity in ip dosed ICR mouse model of chronic unpredictable mild stress assessed as reduction in TNFalpha level in serum administered once a day for 1 week post 8 week of chronic unpredictable mild stress and measured after 1 week by ELISA; assay type: functional, organism-based; conditions: dose 6-12 mg/kg, time 2.0 weeks
[46] = tested on: Mus musculus; assay: Antineuroinflammatory activity in ip dosed ICR mouse model of chronic unpredictable mild stress assessed as reduction in IL-1beta level in serum administered once a day for 1 week post 8 week of chronic unpredictable mild stress and measured after 1 week by ELISA; assay type: functional, organism-based; conditions: dose 6-12 mg/kg, time 2.0 weeks
[47] = tested on: Mus musculus; assay: Antineuroinflammatory activity in ip dosed ICR mouse model of chronic unpredictable mild stress assessed as reduction in IL-6 level in serum administered once a day for 1 week post 8 week of chronic unpredictable mild stress and measured after 1 week by ELISA; assay type: functional, organism-based; conditions: dose 6-12 mg/kg, time 2.0 weeks
[48] = tested on: SH-SY5Y; assay: Neuroprotective activity against corticosterone induced human SH-SY5Y cells assessed as protection against corticosterone induced morphological changes measured after 24 hrs; assay type: functional, cell-based; conditions: dose 5-20 µM
[49] = organism: Mus musculus; conditions: ICR, dose 6-24 mg/kg, route ip, time 2.0 weeks
Description: In vivo inhibition of ASM in ip dosed ICR mouse model of chronic unpredictable mild stress assessed as reduction in ASM activity in hippocampus administered once a day for 1 week post 8 week of chronic unpredictable mild stress and measured after 1 week by fluorescence based analysis

[50] = organism: Mus musculus; conditions: ICR, dose 6-12 mg/kg, route ip, time 2.0 weeks
Description: In vivo inhibition of ASM in ICR mouse model of chronic unpredictable mild stress assessed as increase in 5-HT uptake in hippocampus at 6 to 12 mg/kg, ip administered once a day for 1 week post 8 week of chronic unpredictable mild stress and measured after 1 week by ELISA

O=C(NO)c1cc(-c2ccc(Br)cc2)n(-c2ccc(Cl)cc2)n1
Activity [1]: Non-Toxic | Activity [2]: Toxic | viability [3]: > 78% | Activity [4]: Dose-Dependent Effect | half-life at 1 µM [5]: 111 min | microsomal CLint at 1 µM [6]: 15.6 µL/min/mg | t1/2 [7]: 18.6 min | Tmax [8]: 15 min | Cmax [9]: 2590 ng/mL | AUC(0-t) at 8 h [10]: 921 ng·h/mL | AUC [11]: 928.07 ng·h/mL | MRT inf [12]: 15 min | Vz [13]: 3292.01 mL/kg | CL [14]: 2752.79 mL/kg/h | bioavailability [15]: 39.6% | AUC(0-inf) [16]: 3650 ng·h/mL | AUC(0-t) at 8 h [17]: 3640 ng·h/mL | Cmax [18]: 4200 ng/mL | half-life [19]: 50.4 min | MRT inf [20]: 52.8 min | concentration at 0.5 h [21]: 223 ng/mL | concentration at 1 h [22]: 55.6 ng/mL | concentration at 0.5 h [23]: 83.1 ng/mL | concentration at 1 h [24]: 31.9 ng/mL | Kp at 0.5 h [25]: 0.37 | Kp at 1 h [26]: 0.57 | Activity [27]: Active | Activity [28]: Active | Activity [29]: Active | Activity [30]: Active | Activity [31]: Active | Activity [32]: Dose-Dependent Effect | Activity [33]: Dose-Dependent Effect | Activity [34]: Active | Activity [35]: Active | Activity [36]: Active | Activity [37]: Dose-Dependent Effect | Activity [38]: Dose-Dependent Effect | Activity [39]: Active | Activity [40]: Active | Activity [41]: Active | Activity [42]: Active | Activity [43]: Dose-Dependent Effect | Activity [44]: Dose-Dependent Effect | Activity [45]: Dose-Dependent Effect | Activity [46]: Dose-Dependent Effect | Activity [47]: Dose-Dependent Effect | Activity [48]: Dose-Dependent Effect | inhibition [49]: Dose-Dependent Effect | inhibition [50]: Active
